Assay results published in patent US20240124460A1, “METHODS AND COMPOSITIONS FOR TARGETED PROTEIN DEGRADATION” (Ranok Therapeutics (Hangzhou) Co. Ltd., priority 2020, published 2024).

What was measured:
[1] = test system: U-87 MG human glioblastoma; test: U87 MG CCK-8 proliferation assay; type: cell-based; settings: Homo sapiens, U-87 MG, 72 h, U-87 MG cells, read-out: U87MG CCK-8
Method in brief: (§1)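 Inhibition is derived from CCK-8 absorbance of compound-treated cells relative to DMSO-treated cells, after subtracting a cell-free medium/DMSO background. Test concentrations span 20 μM down to 1.02 nM in 3-fold steps, and lines are cultured as ATCC recommends.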

[2] = molecular target: T1, HSP90α protein (Homo sapiens, UniProt P07900); test: HSP90α-binding FP (BODIPY) assay; settings: FP competition with BODIPY-labeled RNK04010
T1 construct: purchased BPS Bioscience #50298
Protocol: Binding of test compounds to HSP90α protein was measured by fluorescent polarization (FP) using the HSP90α (N-terminal) Assay Kit (BPS Bioscience, #50298), following the manufacturer's instructions, except as noted. Fluorescently labeled HSP90-binding compounds, either the provided FITC-geldanamycin (5 nM final concentration) or RNK04010, a triazolone-based HSP90 binding small molecule labeled with BODIPY through a piperazine-phenyl linker (5 nM final concentration) were employed. A 2.5-fold serial dilution of each test compound ranging from 20 μM to 5.2 nM was assayed for binding to HSP90α. After the final step of adding HSP90α protein to each assay well, plates were mixed by brief shaking, incubated at 25° C. for 120 min for FITC-geldanamycin or 300 min for RNK04010, and fluorescence was measured using a PerkinElmer EnVision Plate Reader.

[3] = test system: MV-4-11 human acute myeloid leukemia; test: MV-4-11 CCK-8 proliferation assay; type: cell-based; settings: Homo sapiens, MV4-11; MV-4-11 cells, 72 hr
Method in brief: as §1

For `CCOc1cc(N2CCC(C(=O)NCC3CCN(C(=O)C4CCN(Cc5ccc(-n6c(O)nnc6-c6cc(C(C)C)c(O)cc6O)cc5)CC4)CC3)CC2)ccc1Nc1ncc2c(n1)N(C)c1ccccc1C(=O)N2C` [Compound 041, N-((1-(1-(4-(3-(2,4-dihydroxy-5-isopropylphenyl)-5-hydroxy-4H-1,2,4-triazol-4-yl)benzyl)piperidine-4-carbonyl)piperidin-4-yl)methyl)-1-(4-((5,11-dimethyl-6-oxo-6,11-dihydro-5H-benzo[e]pyrimido[5,4-b][1,4]diazepin-2-yl)amino)-3-ethoxyphenyl)piperidine-4-carboxamide], the EC50 [1] was < 100 nM, the IC50 [2] was < 100 nM and the EC50 [3] was < 100 nM.

`CCOc1cc(N2CCC(C(=O)N3CCC(CN4CCC(Cc5ccc(-n6c(O)nnc6-c6cc(C(C)C)c(O)cc6O)cc5)CC4)CC3)CC2)ccc1Nc1ncc2c(n1)N(C)c1ccccc1C(=O)N2C` [Compound 044, 2-((4-(4-(4-((4-(4-(3-(2,4-dihydroxy-5-isopropylphenyl)-5-hydroxy-4H-1,2,4-triazol-4-yl)benzyl)piperidin-1-yl)methyl)piperidine-1-carbonyl)piperidin-1-yl)-2-ethoxyphenyl)amino)-5,11-dimethyl-5,11-dihydro-6H-benzo[e]pyrimido[5,4-b][1,4]diazepin-6-one] was tested, and the EC50 [1] was < 100 nM, the IC50 [2] was < 100 nM and the EC50 [3] was < 100 nM.

For `CCOc1cc(N2CCC(C(=O)N[C@H](C)c3ccc(CN4CCC(Cc5ccc(-n6c(O)nnc6-c6cc(C(C)C)c(O)cc6O)cc5)CC4)cc3)CC2)ccc1Nc1ncc2c(n1)N(C)c1ccccc1C(=O)N2C` [Compound 045, (R)—N-(1-(4-((4-(4-(3-(2,4-dihydroxy-5-isopropylphenyl)-5-hydroxy-4H-1,2,4-triazol-4-yl)benzyl)piperidin-1-yl)methyl)phenyl)ethyl)-1-(4-((5,11-dimethyl-6-oxo-6,11-dihydro-5H-benzo[e]pyrimido[5,4-b][1,4]diazepin-2-yl)amino)-3-ethoxyphenyl)piperidine-4-carboxamide], the EC50 [1] was 100 to 1000 nM, the IC50 [2] was 100 to 1000 nM and the EC50 [3] was < 100 nM.

In the case of `CCOc1cc(N2CCC(C(=O)N3CCN(Cc4ccc(-n5c(O)nnc5-c5cc(C(C)C)c(O)cc5O)cc4C(F)(F)F)CC3)CC2)ccc1Nc1ncc2c(n1)N(C)c1ccccc1C(=O)N2C` [Compound 046, 2-((4-(4-(4-(4-(3-(2,4-dihydroxy-5-isopropylphenyl)-5-hydroxy-4H-1,2,4-triazol-4-yl)-2-(trifluoromethyl)benzyl)piperazine-1-carbonyl)piperidin-1-yl)-2-ethoxyphenyl)amino)-5,11-dimethyl-5,11-dihydro-6H-benzo[e]pyrimido[5,4-b][1,4]diazepin-6-one], the EC50 [1] is reported as 100 to 1000 nM, the IC50 [2] is reported as 100 to 1000 nM and the EC50 [3] is reported as < 100 nM.

In the case of `CCOc1cc(N2CCC(C(=O)N3CCN(Cc4ccc(-n5c(O)nnc5-c5cc(C)c(O)cc5O)cc4)CC3)CC2)ccc1Nc1ncc2c(n1)N(C)c1ccccc1C(=O)N2C` [Compound 048, 2-((4-(4-(4-(4-(3-(2,4-dihydroxy-5-methylphenyl)-5-hydroxy-4H-1,2,4-triazol-4-yl)benzyl)piperazine-1-carbonyl)piperidin-1-yl)-2-ethoxyphenyl)amino)-5,11-dimethyl-5,11-dihydro-6H-benzo[e]pyrimido[5,4-b][1,4]diazepin-6-one], the EC50 [1] is reported as 100 to 1000 nM, the IC50 [2] is reported as 100 to 1000 nM and the EC50 [3] is reported as < 100 nM.

With `CCOc1cc(N2CCC(C(=O)N3CCN(Cc4ccc(-n5c(O)nnc5-c5cc(C(C)C)c(O)cc5O)cc4)[C@H](C)C3)CC2)ccc1Nc1ncc2c(n1)N(C)c1ccccc1C(=O)N2C` [Compound 051, (R)-2-((4-(4-(4-(4-(3-(2,4-dihydroxy-5-isopropylphenyl)-5-hydroxy-4H-1,2,4-triazol-4-yl)benzyl)-3-methylpiperazine-1-carbonyl)piperidin-1-yl)-2-ethoxyphenyl)amino)-5,11-dimethyl-5,11-dihydro-6H-benzo[e]pyrimido[5,4-b][1,4]diazepin-6-one] the EC50 [1] was < 100 nM, the IC50 [2] was 100 to 1000 nM and the EC50 [3] was < 100 nM.

`CCOc1cc(N2CCC(C(=O)N3CCN(Cc4ccc(-n5c(O)nnc5-c5cc(C(C)C)c(O)cc5O)cc4)[C@@H](C)C3)CC2)ccc1Nc1ncc2c(n1)N(C)c1ccccc1C(=O)N2C` [Compound 055, (S)-2-((4-(4-(4-(4-(3-(2,4-dihydroxy-5-isopropylphenyl)-5-hydroxy-4H-1,2,4-triazol-4-yl)benzyl)-3-methylpiperazine-1-carbonyl)piperidin-1-yl)-2-ethoxyphenyl)amino)-5,11-dimethyl-5,11-dihydro-6H-benzo[e]pyrimido[5,4-b][1,4]diazepin-6-one] was tested, and the EC50 [1] was 100 to 1000 nM, the IC50 [2] was 100 to 1000 nM and the EC50 [3] was < 100 nM.

With `CCOc1cc(N2CCC(C(=O)N3CCC(N4CCN(Cc5ccc(-n6c(O)nnc6-c6cc(C(C)C)c(O)cc6O)cc5F)CC4)CC3)CC2)ccc1Nc1ncc2c(n1)N(S(C)(=O)=O)c1ccccc1C(=O)N2C` [Compound 059, 2-((4-(4-(4-(4-(4-(3-(2,4-dihydroxy-5-isopropylphenyl)-5-hydroxy-4H-1,2,4-triazol-4-yl)-2-fluorobenzyl)piperazin-1-yl)piperidine-1-carbonyl)piperidin-1-yl)-2-ethoxyphenyl)amino)-5-methyl-11-(methylsulfonyl)-5,11-dihydro-6H-benzo[e]pyrimido[5,4-b][1,4]diazepin-6-one] the EC50 [1] was < 100 nM, the IC50 [2] was < 100 nM and the EC50 [3] was < 100 nM.

For `CCOc1cc(N2CCC(C(=O)N3CCC(CN4CCN(Cc5ccc(-n6c(C(N)=O)nnc6-c6cc(CC)c(O)cc6O)cc5)CC4)CC3)CC2)ccc1Nc1ncc2c(n1)N(S(C)(=O)=O)c1ccccc1C(=O)N2C` [Compound 063, 4-(4-((4-((1-(1-(3-ethoxy-4-((5-methyl-11-(methylsulfonyl)-6-oxo-6,11-dihydro-5H-benzo[e]pyrimido[5,4-b][1,4]diazepin-2-yl)amino)phenyl)piperidine-4-carbonyl)piperidin-4-yl)methyl)piperazin-1-yl)methyl)phenyl)-5-(5-ethyl-2,4-dihydroxyphenyl)-4H-1,2,4-triazole-3-carboxamide], the EC50 [1] was < 100 nM, the IC50 [2] was < 100 nM and the EC50 [3] was < 100 nM.

For `CCOc1cc(N2CCC(C(=O)N3CCC(N4CCN(Cc5ccc(-n6c(O)nnc6-c6cc(C(C)C)c(O)cc6O)cc5)CC4)CC3)CC2)ccc1Nc1ncc2c(n1)N(S(C)(=O)=O)c1ccccc1C(=O)N2C` [Compound 064, 2-((4-(4-(4-(4-(4-(3-(2,4-dihydroxy-5-isopropylphenyl)-5-hydroxy-4H-1,2,4-triazol-4-yl)benzyl)piperazin-1-yl)piperidine-1-carbonyl)piperidin-1-yl)-2-ethoxyphenyl)amino)-5-methyl-11-(methylsulfonyl)-5,11-dihydro-6H-benzo[e]pyrimido[5,4-b][1,4]diazepin-6-one], the EC50 [1] was < 100 nM, the IC50 [2] was < 100 nM and the EC50 [3] was < 100 nM.

In the case of `CCOc1cc(N2CCC(C(=O)NCCOCCOc3ccc(Nc4ccc(-n5nc(C(F)(F)F)c6c5CC(C)(C)CC6=O)cc4C(N)=O)cc3)CC2)ccc1Nc1ncc2c(n1)N(S(C)(=O)=O)c1ccccc1C(=O)N2C` [Compound 067, N-(2-(2-(4-((2-carbamoyl-4-(6,6-dimethyl-4-oxo-3-(trifluoromethyl)-4,5,6,7-tetrahydro-1H-indazol-1-yl)phenyl)amino)phenoxy)ethoxy)ethyl)-1-(3-ethoxy-4-((5-methyl-11-(methylsulfonyl)-6-oxo-6,11-dihydro-5H-benzo[e]pyrimido[5,4-b][1,4]diazepin-2-yl)amino)phenyl)piperidine-4-carboxamide], the EC50 [1] is reported as > 1000 nM, the IC50 [2] is reported as > 1000 nM and the EC50 [3] is reported as 100 to 1000 nM.

With `CCOc1cc(N2CCC(C(=O)N3CCC(CN4CCN(CCCOc5ccc(Nc6ccc(-n7nc(C(F)(F)F)c8c7CC(C)(C)CC8=O)cc6C(N)=O)cc5)CC4)CC3)CC2)ccc1Nc1ncc2c(n1)N(S(C)(=O)=O)c1ccccc1C(=O)N2C` [Compound 068, 5-(6,6-dimethyl-4-oxo-3-(trifluoromethyl)-4,5,6,7-tetrahydro-1H-indazol-1-yl)-2-((4-(3-(4-((1-(1-(3-ethoxy-4-((5-methyl-11-(methylsulfonyl)-6-oxo-6,11-dihydro-5H-benzo[e]pyrimido[5,4-b][1,4]diazepin-2-yl)amino)phenyl)piperidine-4-carbonyl)piperidin-4-yl)methyl)piperazin-1-yl)propoxy)phenyl)amino)benzamide] the EC50 [1] was > 1000 nM, the IC50 [2] was > 1000 nM and the EC50 [3] was 100 to 1000 nM.

`CCOc1cc(N2CCC(C(=O)N3CCC(N4CCN(Cc5ccc(-n6c(O)nnc6-c6cc(C(C)C)c(O)cc6O)cc5C(F)(F)F)CC4)CC3)CC2)ccc1Nc1ncc2c(n1)N(S(C)(=O)=O)c1ccccc1C(=O)N2C` [Compound 069, 2-((4-(4-(4-(4-(4-(3-(2,4-dihydroxy-5-isopropylphenyl)-5-hydroxy-4H-1,2,4-triazol-4-yl)-2-(trifluoromethyl)benzyl)piperazin-1-yl)piperidine-1-carbonyl)piperidin-1-yl)-2-ethoxyphenyl)amino)-5-methyl-11-(methylsulfonyl)-5,11-dihydro-6H-benzo[e]pyrimido[5,4-b][1,4]diazepin-6-one] was tested, and the EC50 [1] was 100 to 1000 nM, the IC50 [2] was 100 to 1000 nM and the EC50 [3] was < 100 nM.
